Results on eight compounds are retold here after ChEMBL document CHEMBL1201862, “PubChem BioAssay data set” (2004).

What all share (experiment): NCI-60 cell line screen, 48 h
The test system of assay [1] is M14.
Assay [2] deals with K562.
Assay [3] relates to HL-60.
For assay [4], the system named is NCI-H522.
In assay [5] the test system is HCT-116.
Assay [6] concerns ACHN.
Assay [7] deals with HCT-15.
Assay [8] relates to NCI-H23.
Assay [9] concerns COLO 205.
Assay [10] relates to SR.
For assay [11], the system named is DMS-273.
Assay [12] relates to SK-OV-3.
Assay [13] deals with SF-295.
Assay [14] concerns Malme-3M.
The subject of assay [15] is SW-620.
The test system of assay [16] is A549.
Assay [17] relates to DMS-114.
Assay [18] relates to 786-0.
In assay [19] the test system is OVCAR-8.

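Briefly, cells in 96-well plates were exposed to five compound concentrations for 48 h, and endpoints were estimated by linear interpolation. GI50: concentration for 50% inhibition of growth.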 Active and inactive are the calls of the source. Cut-off read from the data, not from the text of the source: active = GI50 up to about 1.1 µM and inactive = higher.

For the compound `C[Si](C)(c1ccccc1)C1CC(=O)CC(=O)C1`, the GI50 in [1] is > 100 µM (inactive); in assay [2], > 100 µM (inactive); in assay [3], 21.3 µM (inactive); in assay [4], 26.1 µM (inactive); in assay [5] it was > 100 µM (inactive); in [6] it was > 100 µM (inactive). Besides, the GI50 in assay [7] was greater than 100 µM; in [8], > 100 µM (inactive); in assay [9], > 100 µM (inactive); in [10], > 100 µM (inactive); in assay [11], > 100 µM (inactive); in assay [12] it was > 100 µM (inactive). Besides, the GI50 is > 100 µM (inactive) in [13]; > 100 µM (inactive) in [14]; > 100 µM (inactive) in assay [15]; > 100 µM (inactive) in [16]; > 100 µM (inactive) in assay [17]; 21.4 µM (inactive) in [18]. For the same compound, the GI50 in [19] was > 100 µM (inactive).

As to `CN(C(=O)C12C3C4C5C3C1(C(=O)O)C5C42)C(C)(C)C` (centres undefined), the GI50 in assay [1] is > 100 µM (inactive); in assay [2], 44.6 µM (inactive); in assay [3] it was 17.1 µM (inactive); in [4], > 100 µM (inactive); in assay [5], 34.2 µM (inactive); in assay [6] it was > 100 µM (inactive). Also, the GI50 was 33.2 µM in assay [7]; > 100 µM (inactive) in [8]; 28 µM (inactive) in assay [9]; > 100 µM (inactive) in [10]; 16.5 µM (inactive) in assay [11]; > 100 µM (inactive) in [12]. The GI50 in assay [13] was > 100 µM (inactive); in assay [14], > 100 µM (inactive); in assay [15], 23.9 µM (inactive); in assay [16], 42.2 µM (inactive); in assay [17], 28.9 µM (inactive); in assay [18], > 100 µM (inactive). The GI50 in assay [19] is > 100 µM (inactive).

Take `COC(=O)C(C(=O)C(=O)Nc1ccc(C(F)(F)F)cc1[N+](=O)[O-])c1csc(-n2nc(-c3ccccc3)cc2-c2ccccc2)n1` (centres undefined): the GI50 in assay [1] was > 100 µM (inactive); in assay [2] it was > 100 µM (inactive); in assay [3] it was > 100 µM (inactive); in assay [4], > 100 µM (inactive); in assay [5] it was > 100 µM (inactive); in assay [7], greater than 100 µM. For the same compound, the GI50 in assay [8], in assay [9], in assay [10], in assay [11], in [12] and in assay [13] was > 100 µM (inactive) each time. In addition, the GI50 in assay [14], in assay [15], in assay [16], in assay [17], in assay [18] and in assay [19] was > 100 µM (inactive) throughout.

As to `Cc1ccc(S(=O)(=O)NC2(C=O)CCC(C(C)(C)C)CC2)cc1` (centres undefined), the GI50 in [1] was 71 µM (inactive); in assay [2] it was 28.8 µM (inactive); in assay [3], 20.1 µM (inactive); in [4] it was 24.3 µM (inactive); in assay [5] it was 23.8 µM (inactive); in assay [6], 32.5 µM (inactive). The GI50 in [7] was 32.6 µM; in assay [8], 31.2 µM (inactive); in assay [9], 26.7 µM (inactive); in assay [10], 15.2 µM (inactive); in assay [11] it was 27.7 µM (inactive); in assay [12], > 100 µM (inactive). Also, the GI50 in assay [13] was 31.3 µM (inactive); in [14] it was 35.2 µM (inactive); in assay [15], 70.3 µM (inactive); in [16], 35.1 µM (inactive); in [17] it was 20.4 µM (inactive); in [18], 37.9 µM (inactive). Further, the GI50 in assay [19] was 36.5 µM (inactive).

On to `Cc1cc2c(C(C)C)c(O)c(O)c(/C=N\CCO)c2c(O)c1-c1c(C)cc2c(C(C)C)c(O)c(O)c(/C=N/CCO)c2c1O`, for which the GI50 in [1] was 1.83 µM (inactive); in [2], 1.02 µM (active); in [3] it was 2.43 µM (inactive); in assay [4], 2.04 µM (inactive); in assay [5], 1.67 µM (inactive); in assay [6], 3.37 µM (inactive). The GI50 in assay [7] is 1.51 µM; in assay [8], 1.76 µM (inactive); in [9], 1.63 µM (inactive); in assay [10] it was 1.1 µM (active); in assay [11] it was 1.62 µM (inactive); in [12], 3.37 µM (inactive). The GI50 in assay [13] was 2.15 µM (inactive); in [14], 2.47 µM (inactive); in assay [15], 3.83 µM (inactive); in assay [16], 1.21 µM (inactive); in assay [17] it was 1.23 µM (inactive); in assay [18] it was 2.1 µM (inactive). The GI50 in assay [19] was 3.3 µM (inactive).

For `C[n+]1c2ccccc2c(CNCC(=O)O)c2ccccc21`, the GI50 in assay [1] was 3.97 µM (inactive); in assay [2] it was 0.504 µM (active); in [3], 0.187 µM (active); in [4] it was 0.137 µM (active); in assay [5], 0.39 µM (active); in assay [6] it was 0.61 µM (active). Besides, the GI50 in assay [7] is 0.805 µM; in [8], 6.95 µM (inactive); in [9] it was 0.418 µM (active); in assay [10], 0.238 µM (active); in [11], 0.646 µM (active); in assay [12], 4.74 µM (inactive). Moreover, the GI50 in assay [13] is 5.07 µM (inactive); in assay [14], 11.9 µM (inactive); in [15] it was 0.571 µM (active); in assay [16] it was 3.76 µM (inactive); in assay [17], 2.13 µM (inactive); in [18], 1.17 µM (inactive). Moreover, in assay [19], the GI50 is 2.75 µM (inactive).

In the case of `COC(=O)CCC(=O)CC(=O)C(=O)Nc1c(Cl)cc([N+](=O)[O-])cc1Cl`, the GI50 in assay [1] is > 100 µM (inactive); in [2], > 100 µM (inactive); in [3], > 100 µM (inactive); in assay [4], 45.3 µM (inactive); in [5], 42.3 µM (inactive); in assay [6], > 100 µM (inactive). Further, the GI50 in assay [7] is 55.6 µM; in assay [8], > 100 µM (inactive); in assay [9] it was > 100 µM (inactive); in [10] it was 27.2 µM (inactive); in assay [11], > 100 µM (inactive); in assay [12], > 100 µM (inactive). The GI50 in [13] is > 100 µM (inactive); in assay [14], > 100 µM (inactive); in [16], > 100 µM (inactive); in assay [17], 23.5 µM (inactive); in assay [18], > 100 µM (inactive); in assay [19], > 100 µM (inactive).

Take `CCOc1ccc2c(c1)[n+]([O-])c(C(N)=O)c(N)[n+]2[O-]`: the GI50 in assay [1], in assay [2], in assay [3], in assay [4], in assay [5] and in assay [6] was > 100 µM (inactive) in each case. The GI50 in assay [8], in assay [9], in assay [10], in assay [11], in assay [12] and in [13] was > 100 µM (inactive) in each case. Besides, the GI50 in assay [14], in assay [15], in [16], in assay [17], in [18] and in assay [19] was > 100 µM (inactive) each time.
